Where two headings read alike, the source gives them in different places.
Experiments:
[1] = system: oxaliplatin-induced peripheral neuropathy (cold allodynia); assay: Single oral administration in rat model of oxaliplatin-induced peripheral neuropathy, cold allodynia, paw immersion test; format: in vivo, male Sprague-Dawley rats; settings: for percentage of variation of the paw withdrawal latency as compared to the vehicle-treated group: p<0.05
Description: Cold allodynia is measured using the cryothermostat. See […]., “Effect of licofelone against mechanical hyperalgesia and cold allodynia in the rat model of incisional pain” Pharmacological Reports 2005(57):380-384. […] Cheng, X., et al., “Herbal Medicine AC591 Prevents oxaliplatin-Induced Peripheral Neuropathy in Animal Model and Cancer Patients” Frontiers in Pharmacology, 2017(8):344. This model is useful to evaluate the analgesic effects of new compounds on oxaliplatin-induced chronic painful symptoms. Cold allodynia was measured using the paw immersion test. See Singh, supra. In this test, the latency of hindpaw withdrawal was measured after immersion of the hindpaw in the cryothermostat with a temperature fixed at 10° C. (±0.5° C.). […] On day zero (D0), latency of hindpaw withdrawal was measured on both paws using the cryothermostat (Baseline pre-induction). […] Sixty minutes later, the latency of hindpaw withdrawal was measured on both paws using the cryothermostat. […] Doses are expressed in terms of free active substance. […] On D0, latency of hindpaw withdrawal was measured on both paws using the cryothermostat to obtain a preinduction baseline preinduction. […] Sixty minutes later, the latency of hindpaw withdrawal was measured on both paws using the cryothermostat. […] Rats were sacrificed at the end of the experiment by CO2 inhalation pending subsequent removal by a certified company. Results were expressed as: 1) the paw withdrawal latency (mean±s.e.m.) in seconds for each group, calculated from individual paw withdrawal latency; and 2) the percentage of variation of the paw withdrawal latency calculated from the mean value of the vehicle-treated group. To determine a statistical effect of the test substance and the reference substance, data were analyzed by a non-parametrical test. The significance level was p<0.05.

[2] = system: oxaliplatin-induced peripheral neuropathy (cold allodynia); assay: Repeated daily oral administration in rat model of oxaliplatin-induced peripheral neuropathy, cold allodynia, paw immersion test; format: in vivo, male Sprague-Dawley rats
Description: Cold allodynia is measured using the cryothermostat. See Singh, V. P., Kulkarni, S. K., “Effect of licofelone against mechanical hyperalgesia and cold allodynia in the rat model of incisional pain” Pharmacological Reports 2005(57):380-384.
Cold allodynia was measured using the paw immersion test. See Singh, supra. In this test, the latency of hindpaw withdrawal was measured after immersion of the hindpaw in the cryothermostat with a temperature fixed at 10° C. (±0.5° C.).
Duloxetine was used as a reference to validate the assay.
On D-3, latency of hindpaw withdrawal was measured on both paws using the cryothermostat to obtain a pre-induction and pre-treatment baseline. […] The first administration of vehicle and Compound A (groups 1 to 4) was done on D-3, then vehicle and Compound A were daily orally administered until D18 (n=22 repeated treatments). […] On the testing days (D4, D11, and D18), latency of hindpaw withdrawal was measured on both paws using the cryothermostat to obtain a baseline. Duloxetine was then orally administered at the same time as vehicle and Compound A at time T0. Sixty minutes later, the latency of hindpaw withdrawal was measured.
Vehicle (10% Ethanol/40% PEG 400/15% Tween 80 in sterile water) and Compound A were orally administered at 3 ml/kg. Duloxetine was orally administered at 10 ml/kg. Dosing and testing were performed in a random order by a blinded experimenter with the exception of sham animals and the duloxetine-treated group. Doses are expressed in terms of free active substance.
On D-3, the latency of hindpaw withdrawal was measured on both paws using the cryothermostat to obtain preinduction and pretreatment baselines.
The first administration of vehicle and Compound A (group 1 to 4) was done on D-3 then vehicle and Compound A were daily orally administered until D18 (n=22 repeated treatments).
On the testing days (D4, D11 and D18), latency of hindpaw withdrawal was measured on both paws using the cryothermostat (baseline) then duloxetine was orally administered at the same time than vehicle and Compound A (T0) and 60 minutes later, the latency of hindpaw withdrawal was measured.
Results were expressed as: 1) the paw withdrawal latency (mean±s.e.m.) in seconds for each group, calculated from individual paw withdrawal latency; and 2) the percentage of variation of the paw withdrawal latency calculated from the mean value of the vehicle-treated group. To determine a statistical effect of the test substance and the reference substance, data were analyzed by a non-parametrical test. The significance level was p<0.05.

[3] = system: patients receiving oxaliplatin; settings: cited from earlier work

CC(C)C[C@](C)(N)COc1ccc(-c2ccnc(C(F)F)c2)nc1C(F)F [Compound A, ((S)-1-((2′,6-bis (difluoromethyl)-[2,4′-bipyridin]-5-yl)oxy)-2,4-dimethylpentan-2-aminiumdihydrogen phosphate]
increase in paw withdrawal latency as compared to the vehicle-treated group ([1]; 10 mg/kg p.o., 60 minutes post-treatment): did not show a statistically significant increase
percentage of variation of the paw withdrawal latency as compared to the vehicle-treated group ([1]; 30 mg/kg p.o., week 3, 60 minutes post-treatment): +35%
increase in the paw withdrawal latency as compared to the vehicle-treated group ([2]; daily oral administrations at 3 mg/kg): did not show a statistically significant increase
percentage of variation of the paw withdrawal latency as compared to the vehicle-treated group ([2]; daily p.o. 30 mg/kg then 10 mg/kg, week 2, baseline (before the day's dose), ns): +25%
paw withdrawal latency (mean±s.e.m.) ([2]; daily p.o. 30 mg/kg then 10 mg/kg, week 3, 60 minutes after the administration, vehicle 6.7±0.6 sec, p<0.05): 10.2 ± 0.8 s
percentage of variation of the paw withdrawal latency as compared to the vehicle-treated group ([2]; daily p.o. 30 mg/kg then 10 mg/kg, week 3, baseline (before the day's dose), p<0.05): +43%

CNCC[C@H](Oc1cccc2ccccc12)c1cccs1 [Duloxetine]
percentage of variation of the paw withdrawal latency as compared to the vehicle-treated group ([1]; 100 mg/kg p.o., week 2, 60 minutes post-treatment): +42%
percentage of variation of the paw withdrawal latency as compared to the vehicle-treated group ([1]; 100 mg/kg p.o., week 3, 60 minutes post-treatment): +74%
percentage of variation of the paw withdrawal latency as compared to the vehicle-treated group ([2]; 100 mg/kg p.o. on testing day, week 2, 60 minutes after treatment, p<0.01): +33%
increase in the paw withdrawal latency as compared to the pre-drug baseline of the corresponding group ([2]; 100 mg/kg p.o. on testing day, week 3, 60 minutes after treatment, not significant): +50%
paw withdrawal latency (mean±s.e.m.) ([2]; 100 mg/kg p.o., week 3, 60 minutes after treatment, pre-drug baseline of the group 6.3±0.3 sec): 9.4 ± 0.7 s

O=C1[O][Pt]2([NH][C@@H]3CCCC[C@H]3[NH]2)[O]C1=O [oxaliplatin]
prevalence of CIPN in patients receiving oxaliplatin ([3]; after one month of chemotherapy): approximately 68%
prevalence of CIPN in patients receiving oxaliplatin ([3]; at six months or more): 30%
prevalence of CIPN in patients receiving oxaliplatin ([3]; at three months): 60%
patients who took oxaliplatin reporting long-lasting neuropathic symptoms ([3]; chronic neuropathic pain): Approximately 60%
